Laboratory results from publication PMC9694544, “Conteltinib (CT-707) in patients with advanced ALK-positive non-small cell lung cancer: a multicenter, open-label, first-in-human phase 1 study” (BMC Medicine, 2022).
Like-named read-outs stand apart in the source and are kept apart here.

Experiment: clinical
Conditions: human, in vivo; for half-life: read-out: T1/2 (converted); for Tmax: read-out: Tmax
Experimental: For single-dose PK parameters, plasma samples were taken at pre-dose and 0.5 h, 1 h, 2 h, 3 h, 4 h, 6 h, 8 h, 12 h, 24 h, 48 h, 72 h, 96 h, 120 h, 144 h, and 168 h post-dose in PK lead-in phase of dose-escalation phase, and plasma samples were also taken at pre-dose and 0.5 h, 1 h, 2 h, 3 h, 4 h, 6 h, 8 h, 12 h, and 24 h post-dose in cycle 1 day 1 of dose-expansion phase. During continuous dosing, serial plasma samples were collected at pre-dose in cycle 1 day 15, pre-dose in cycle 1 day 22, pre-dose and 0.5 h, 1 h, 2 h, 3 h, 4 h, 6 h, 8 h, 12 h, and 24 h post-dose in cycle 1 day 28 for all dose cohorts. The following PK parameters were assessed: area under the concentration-time curve from the time of dosing extrapolated to infinity, based on the last observed concentration (AUCINF_obs); area under the concentration-time curve from the time of dosing to the time of last observation (AUClast); maximum concentration (Cmax); time to maximum concentration (Tmax); elimination half-life (T1/2); and mean residence time from the time of dosing to the time of the last measurable concentration (MRTlast).

[1] = 100 mg, cycle 1 day 28 of dose-expansion phase, 100 mg (n=5), mean
[2] = 100 mg, single dose, cycle 1 day 1 of dose-expansion phase, 100 mg (n=5), mean
[3] = 450 mg, cycle 1 day 28 of dose-expansion phase, 450 mg (n=10), mean
[4] = 450 mg, single dose, cycle 1 day 1 of dose-expansion phase, 450 mg (n=10), mean
[5] = 600 mg, cycle 1 day 28 of dose-expansion phase, 600 mg (n=10), mean
[6] = 600 mg, single dose, cycle 1 day 1 of dose-expansion phase, 600 mg (n=10), mean
[7] = cycle 1 day 28 of dose-escalation phase, 50 mg (n=2), mean
[8] = cycle 1 day 28 of dose-escalation phase, 100 mg (n=3), mean
[9] = cycle 1 day 28 of dose-escalation phase, 200 mg (n=3), mean
[10] = cycle 1 day 28 of dose-escalation phase, 300 mg (n=3), mean
[11] = cycle 1 day 28 of dose-escalation phase, 450 mg (n=3), mean

COc1cc(N2CCC(N3CCN(C)CC3)CC2)ccc1Nc1nc2c(c(Nc3ccccc3S(=O)(=O)NC(C)C)n1)CCN2 [Conteltinib]
Cmax (100 mg, Cmax): 123 ng/mL | AUC(0-t) [1]: 1710 ng·h/mL | MRT last [1]: 10.7 h | AUC(0-inf) (100 mg, cycle 1 day 28 of dose-expansion phase, 100 mg (n=5), mean, read-out: AUCINF_obs): 6460 ng·h/mL | half-life [1]: 53.2 h | Tmax [1]: 2 h | AUC(0-t) [2]: 737 ng·h/mL | MRT last [2]: 8.9 h | AUC(0-inf) (100 mg, single dose, cycle 1 day 1 of dose-expansion phase, 100 mg (n=5), mean, read-out: AUCINF_obs): 1310 ng·h/mL | Cmax (100 mg, single dose, cycle 1 day 1 of dose-expansion phase, 100 mg (n=5), mean, read-out: Cmax): 85.5 ng/mL | half-life [2]: 26.7 h | Tmax [2]: 2.7 h | AUC(0-t) [3]: 7040 ng·h/mL | MRT last [3]: 10.5 h | AUC(0-inf) (450 mg, cycle 1 day 28 of dose-expansion phase, 450 mg (n=10), mean, read-out: AUCINF_obs): 15700 ng·h/mL | Cmax (450 mg, cycle 1 day 28 of dose-expansion phase, 450 mg (n=10), mean, read-out: Cmax): 491 ng/mL | half-life [3]: 26.3 h | Tmax [3]: 3 h | AUC(0-t) [4]: 3060 ng·h/mL | MRT last [4]: 9.3 h | AUC(0-inf) (450 mg, single dose, cycle 1 day 1 of dose-expansion phase, 450 mg (n=10), mean, read-out: AUCINF_obs): 6340 ng·h/mL | Cmax (450 mg, single dose, cycle 1 day 1 of dose-expansion phase, 450 mg (n=10), mean, read-out: Cmax): 328 ng/mL | Tmax [4]: 2.3 h | AUC(0-inf) (600 mg, AUCINF_obs): 7150 ng·h/mL | AUC(0-t) [5]: 11900 ng·h/mL | AUC(0-inf) (600 mg, cycle 1 day 28 of dose-expansion phase, 600 mg (n=10), mean, read-out: AUCINF_obs): 32500 ng·h/mL | Cmax (600 mg, cycle 1 day 28 of dose-expansion phase, 600 mg (n=10), mean, read-out: Cmax): 772 ng/mL | half-life [5]: 37.1 h | Tmax [5]: 3.3 h | AUC(0-t) [6]: 4610 ng·h/mL | MRT last [6]: 9.8 h | Cmax (600 mg, single dose, cycle 1 day 1 of dose-expansion phase, 600 mg (n=10), mean, read-out: Cmax): 472 ng/mL | half-life [6]: 16.7 h | Tmax [6]: 4.6 h | AUC(0-t) [7]: 683 ng·h/mL | AUC(0-inf) (cycle 1 day 28 of dose-escalation phase, 50 mg (n=2), mean, read-out: AUCINF_obs): 16700 ng·h/mL | Cmax (cycle 1 day 28 of dose-escalation phase, 50 mg (n=2), mean, read-out: Cmax): 42.7 ng/mL | half-life [7]: 352 h | Tmax [7]: 1.5 h | AUC(0-t) [8]: 1480 ng·h/mL | AUC(0-inf) (cycle 1 day 28 of dose-escalation phase, 100 mg (n=3), mean, read-out: AUCINF_obs): 6110 ng·h/mL | Cmax (cycle 1 day 28 of dose-escalation phase, 100 mg (n=3), mean, read-out: Cmax): 106 ng/mL | half-life [8]: 61.1 h | Tmax [8]: 2.7 h | AUC(0-t) [9]: 3570 ng·h/mL | MRT last [9]: 11.2 h | AUC(0-inf) (cycle 1 day 28 of dose-escalation phase, 200 mg (n=3), mean, read-out: AUCINF_obs): 12400 ng·h/mL | Cmax (cycle 1 day 28 of dose-escalation phase, 200 mg (n=3), mean, read-out: Cmax): 259 ng/mL | half-life [9]: 42.2 h | Tmax [9]: 3 h | AUC(0-t) [10]: 4860 ng·h/mL | AUC(0-inf) (cycle 1 day 28 of dose-escalation phase, 300 mg (n=3), mean, read-out: AUCINF_obs): 19000 ng·h/mL | Cmax (cycle 1 day 28 of dose-escalation phase, 300 mg (n=3), mean, read-out: Cmax): 282 ng/mL | half-life [10]: 50.9 h | Tmax [10]: 3 h | AUC(0-t) [11]: 8050 ng·h/mL | MRT last [11]: 11.6 h | AUC(0-inf) (cycle 1 day 28 of dose-escalation phase, 450 mg (n=3), mean, read-out: AUCINF_obs): 34400 ng·h/mL | Cmax (cycle 1 day 28 of dose-escalation phase, 450 mg (n=3), mean, read-out: Cmax): 474 ng/mL | half-life [11]: 48.6 h | Tmax [11]: 4.3 h
